According to the supplement of paper PMC10290057:
Structures can show the parent of a compound that is named as a salt.

Experiments:
HCT116 [1] = assay: AC50 cell viability (CellTiter-Glo); higher = less potent; conditions: 48 h
HCT116 [2] = assay: efficacy (fitted maximal change in viability relative to DMSO control); higher = less cytotoxic (negative = loss of viability); conditions: 48 h
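For AC50 cell viability (CellTiter-Glo) in this document: HCT116 colorectal carcinoma cells screened at five concentrations per compound, luminescent viability scaled between DMSO wells and empty wells on each plate, curves fitted per compound.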
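For efficacy (fitted maximal change in viability relative to DMSO control) in this document: Luminescence-based viability readout, five doses per compound, normalized against on-plate DMSO and empty-well controls, followed by dose-response curve fitting for every drug.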

Row | SMILES | AC50 cell viability (HCT116 [1]) [µM] | efficacy (HCT116 [2]) [%]
1 | CC(O)c1cc(C(=O)N[C@@H](C)Cn2ccc(-c3ccc(C#N)c(Cl)c3)n2)n[nH]1 (some centres not stated) [Darolutamide (ODM-201)] | 16.6 | -38.4
2 | Cc1nc(Nc2ncc(C(=O)Nc3c(C)cccc3Cl)s2)cc(N2CCN(CCO)CC2)n1 [Dasatinib] | 14.8 | -81.1
3 | C[C@@H]1C[C@H]2[C@@H]3\C=C(C)/C4=C/C5=C(C[C@]4(C)[C@H]3[C@@H](O)C[C@]2(C)[C@@]1(O)C(=O)CO)C=N[N]5C6=CC=CC=C6 [Deacetyl cortivazol] | 26.3 | -121
4 | CC[C@@](C)(Nc1ccnc(-c2c[nH]c3ncccc23)n1)C(=O)NCC(F)(F)F [Decernotinib] | 20.9 | -56.7
5 | NC\1=N\C(=O)N(\C=N1)[C@H]2C[C@H](O)[C@@H](CO)O2 [Decitabine] | 9.34 | -42.1
6 | CNC(=O)c1ccc(Nc2ncc(C(F)(F)F)c(NCc3nccnc3N(C)[S+](C)(=O)[O-])n2)cc1 [Defactinib] | 1.86 | -71.4
7 | O=C(O)c1ccc(-n2nc(-c3ccccc3O)nc2-c2ccccc2O)cc1 [Deferasirox] | 13.2 | -92.9
8 | CC(=O)N(O)CCCCCNC(=O)CCC(=O)N(O)CCCCCNC(=O)CCC(=O)N(O)CCCCCN [Deferoxamine mesylate] | 9.34 | -95.9
9 | CCC[C@H](NC(=O)/C(C#N)=C/c1cccc(Br)n1)c1ccccc1 [Degrasyn] | 26.3 | -104
10 | COC1=CC2=C(C=C1OC)[C@H]3[C@@H](CO2)OC4=C(C=CC5=C4\C=C/C(C)(C)O5)C3=O [Deguelin] | 5.25 | -82.8
11 | CC(C)C[C@H](NC(=O)[C@@H](NC(=O)c1cccc(-c2ccccc2)n1)[C@@H](C)O)B(O)O [Delanzomib] | 0.0362 | -84.8
12 | c1ccc(Cn2c(-c3ccc(OCC(C4CCNCC4)n4c(-c5ccccc5)nc5ccccc54)cc3)nc3ccccc32)cc1 (configuration not stated) [Deltarasin] | 9.34 | -89.7
13 | CN[C@H]1CCC2=CC(=C(OC)C(=C2C/3=C/C=C(OC)\C(=O)/C=C13)OC)OC [Demecolcine] | 0.059 | -62.6
14 | COCCNCCc1cccc(Nc2ncc3c(n2)-c2ccccc2[C@H](c2ccccc2F)C3)c1 [Derazantinib] | 10.5 | -95.8
15 | CCCCCCC(C)(C)C1=CC2=C([C@H]3CC(=C/CC3C(C)(C)O2)\CO)C(=C1)O (some centres not stated) [Dexanabinol] | 8.33 | -93.9
16 | ClC1=CC=C(C=C1)C(C#N)C2=C(Cl)C=C(C=C2Cl)N3\N=C/C(=O)NC3=O (configuration not stated) [Diclazuril] | 23.5 | -56
17 | CC/C(=C(/CC)c1ccc(O)cc1)c1ccc(O)cc1 [Diethylstilbestrol] | 18.6 | -47.2
18 | C[C@H]1O[C@H](C[C@H](O)[C@@H]1O)O[C@H]2[C@@H](O)C[C@@H](O[C@@H]2C)O[C@H]3[C@@H](O)C[C@@H](O[C@@H]3C)O[C@H]4CC[C@@]5(C)[C@H](CC[C@@H]6[C@@H]5C[C@@H](O)[C@]7(C)[C@H](CC[C@]67O)C/8=C/C(=O)OC8)C4 [Digoxin] | 0.0525 | -80.9
19 | C[C@@H]1CC[C@@]2(OC1)O[C@H]3C[C@H]4[C@@H]5C/C=C6/C[C@H](CC[C@]6(C)[C@H]5CC[C@]4(C)[C@H]3[C@@H]2C)O[C@@H]7O[C@H](CO)[C@@H](O[C@@H]8O[C@@H](C)[C@H](O)[C@@H](O)[C@H]8O)[C@H](O)[C@H]7O[C@@H]9O[C@@H](C)[C@H](O)[C@@H](O)[C@H]9O [Dioscin] | 5.25 | -101
20 | CCN(CC)C(=S)SSC(=S)N(CC)CC [Disulfiram] | 16.6 | -101
21 | O=C(C(c1ccccc1)c1ccccc1)N1CCN(CC(O)COc2cccc3ncccc23)CC1 (configuration not stated) [Dofequidar] | 18.6 | -50.3
